ChEMBL document CHEMBL1201862, “PubChem BioAssay data set” (2004)
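Results reflect a 48-hour exposure of cells in 96-well plates to compound at five concentrations. GI50: concentration for 50% inhibition of growth.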 Active and inactive are the calls of the source. Cut-off read from the data, not from the text of the source: active = GI50 up to about 1.1 µM and inactive = higher.

Tests used:
Test in all cases: inhibition of tumour cell growth, NCI panel, 48 h
SNB-75 = system: SNB-75
A498 = system: A498
U-251 = system: U-251
Malme-3M = system: Malme-3M
SF-268 = system: SF-268
SW-620 = system: SW-620
IGROV-1 = system: IGROV-1
OVCAR-8 = system: OVCAR-8
NCI-H23 = system: NCI-H23
M19-MEL = system: M19-MEL
UACC-62 = system: UACC-62
TK-10 = system: TK-10
NCI-H460 = system: NCI-H460
HCT-15 = system: HCT-15
SK-MEL-2 = system: SK-MEL-2
SF-539 = system: SF-539
CAKI-1 = system: CAKI-1

Compound | GI50 (SNB-75) | GI50 (A498) | GI50 (U-251) | GI50 (Malme-3M) | GI50 (SF-268) | GI50 (SW-620) | GI50 (IGROV-1) | GI50 (OVCAR-8) | GI50 (NCI-H23) | GI50 (M19-MEL) | GI50 (UACC-62) | GI50 (TK-10) | GI50 (NCI-H460) | GI50 (HCT-15) | GI50 (SK-MEL-2) | GI50 (SF-539) | GI50 (CAKI-1)
COC(=O)NC(=O)c1cn(C2CCCCC2)c(=O)[nH]c1=O | > 100 µM (inactive) | > 100 µM (inactive) | > 100 µM (inactive) | > 100 µM (inactive) | > 100 µM (inactive) | > 100 µM (inactive) | > 100 µM (inactive) | > 100 µM (inactive) | > 100 µM (inactive) | > 100 µM (inactive) | > 100 µM (inactive) | > 100 µM (inactive) | > 100 µM (inactive) | > 100 µM | > 100 µM (inactive) | > 100 µM (inactive) | > 100 µM (inactive)
COc1ccccc1/C=C(\C#N)C(=O)c1ccccc1 |  | > 100 µM (inactive) | > 100 µM (inactive) | > 100 µM (inactive) | > 100 µM (inactive) | > 100 µM (inactive) | > 100 µM (inactive) | > 100 µM (inactive) | > 100 µM (inactive) | > 100 µM (inactive) | > 100 µM (inactive) |  | > 100 µM (inactive) | > 100 µM | > 100 µM (inactive) | > 100 µM (inactive) | > 100 µM (inactive)
CC(=O)O[C@]1(C)CCC2C(C)C(=O)OC2C2C(C)[C@@H](O)CC21 (stereo not given in full) | 60.5 µM (inactive) | 19.8 µM (inactive) | 30.1 µM (inactive) | > 100 µM (inactive) | 33.3 µM (inactive) | 15.8 µM (inactive) | 40.7 µM (inactive) | 87.9 µM (inactive) | 36.6 µM (inactive) | 23.2 µM (inactive) | 33.9 µM (inactive) | 42.6 µM (inactive) | 66.5 µM (inactive) | 18.1 µM | 20.3 µM (inactive) | 39.5 µM (inactive) | 47.2 µM (inactive)
Cc1ccc(S(=O)(=O)c2ccc(N)cc2)cc1 | > 100 µM (inactive) | > 100 µM (inactive) | > 100 µM (inactive) | > 100 µM (inactive) |  | > 100 µM (inactive) | > 100 µM (inactive) | > 100 µM (inactive) | > 100 µM (inactive) | > 100 µM (inactive) | > 100 µM (inactive) | > 100 µM (inactive) | > 100 µM (inactive) | > 100 µM | > 100 µM (inactive) | > 100 µM (inactive) | 97.9 µM (inactive)
C/C(=N\NC(N)=O)c1sc(-c2nc(C)c(/C(C)=N/NC(N)=O)s2)nc1C | > 100 µM (inactive) | > 100 µM (inactive) | 99.3 µM (inactive) | > 100 µM (inactive) | > 100 µM (inactive) |  | > 100 µM (inactive) | > 100 µM (inactive) | > 100 µM (inactive) | > 100 µM (inactive) | > 100 µM (inactive) | > 100 µM (inactive) | 78.7 µM (inactive) | 21.9 µM | > 100 µM (inactive) | > 100 µM (inactive) | > 100 µM (inactive)
N/N=C(/Cc1nc2ccc(C(=O)c3ccccc3)cc2nc1O)C(=O)Nc1ccc([N+](=O)[O-])cc1[N+](=O)[O-] | > 10 µM (inactive) | > 10 µM (inactive) | > 10 µM (inactive) | > 100 µM (inactive) | > 10 µM (inactive) | > 100 µM (inactive) | > 10 µM (inactive) | 81.8 µM (inactive) | > 10 µM (inactive) | > 10 µM (inactive) | 49 µM (inactive) | > 100 µM (inactive) | > 10 µM (inactive) | > 10 µM | > 10 µM (inactive) | > 100 µM (inactive) | > 100 µM (inactive)
Nc1ccc(C(=O)CC2(O)C(=O)Nc3c(Cl)cc(Cl)cc32)cc1 (stereo not given) | 58.1 µM (inactive) | > 100 µM (inactive) | 27.2 µM (inactive) | > 100 µM (inactive) | > 100 µM (inactive) | 25.5 µM (inactive) |  | > 100 µM (inactive) | 83 µM (inactive) | 47 µM (inactive) |  | > 100 µM (inactive) | > 100 µM (inactive) | 69.7 µM | > 100 µM (inactive) | > 100 µM (inactive) | 
O=[N+]([O-])c1cc(I)cc(/C=N/NS(=O)(=O)c2ccc(Cl)cc2)c1O | 27 µM (inactive) | 22.9 µM (inactive) | 18.7 µM (inactive) | 22 µM (inactive) | 36.9 µM (inactive) | 27.6 µM (inactive) | 20.3 µM (inactive) | 20.7 µM (inactive) | 16.3 µM (inactive) | 25.2 µM (inactive) | 26.1 µM (inactive) | 30.8 µM (inactive) | 19.9 µM (inactive) | 20.4 µM | 23.5 µM (inactive) | 23 µM (inactive) | 22.3 µM (inactive)
CCOC(=O)c1oc2c(OC)cc(Cl)c3c2c1CCC3 | 26.2 µM (inactive) | 69.8 µM (inactive) | 45 µM (inactive) | > 100 µM (inactive) | > 100 µM (inactive) | > 100 µM (inactive) | 38.3 µM (inactive) | 35.4 µM (inactive) | > 100 µM (inactive) | > 100 µM (inactive) | > 100 µM (inactive) | 27.4 µM (inactive) | > 100 µM (inactive) | > 100 µM | > 100 µM (inactive) | > 100 µM (inactive) | 
